In ChEMBL document CHEMBL1201862, “PubChem BioAssay data set” (2004):
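Exposure lasted 48 hours, with cells grown in 96-well plates and compounds tested at five concentrations. At the GI50, growth is halved.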 Active and inactive are the calls of the source. No stated cut-off is given here; in the data, active = GI50 up to about 1.1 µM and inactive = higher.

Assays:
Assay in all cases: inhibition of tumour cell growth, NCI panel, 48 h
HOP-62 = test system: HOP-62
IGROV-1 = test system: IGROV-1
786-0 = test system: 786-0
Hs-578T = test system: Hs-578T
NCI-H460 = test system: NCI-H460
OVCAR-8 = test system: OVCAR-8
COLO 205 = test system: COLO 205
HOP-92 = test system: HOP-92
UACC-62 = test system: UACC-62
SNB-75 = test system: SNB-75
DU-145 = test system: DU-145
HCT-15 = test system: HCT-15
SF-295 = test system: SF-295
MCF7 = test system: MCF7
CCRF-CEM = test system: CCRF-CEM
SW-620 = test system: SW-620
HT-29 = test system: HT-29
MOLT-4 = test system: MOLT-4
KM12 = test system: KM12
MDA-MB-435 = test system: MDA-MB-435

Structure (SMILES)	GI50 (HOP-62)	GI50 (IGROV-1)	GI50 (786-0)	GI50 (Hs-578T)	GI50 (NCI-H460)	GI50 (OVCAR-8)	GI50 (COLO 205)	GI50 (HOP-92)	GI50 (UACC-62)	GI50 (SNB-75)	GI50 (DU-145)	GI50 (HCT-15)	GI50 (SF-295)	GI50 (MCF7)	GI50 (CCRF-CEM)	GI50 (SW-620)	GI50 (HT-29)	GI50 (MOLT-4)	GI50 (KM12)	GI50 (MDA-MB-435)
CCC1CCN=C(Cn2cc(C)c(=O)[nH]c2=O)N1 (centres undefined)	> 100 µM (inactive)	> 100 µM (inactive)	> 100 µM (inactive)	> 100 µM (inactive)	> 100 µM (inactive)	> 100 µM (inactive)	> 100 µM (inactive)	> 100 µM (inactive)	> 100 µM (inactive)	> 100 µM (inactive)	> 100 µM (inactive)	> 100 µM	> 100 µM (inactive)	> 100 µM (inactive)	0.201 µM (active)	> 100 µM (inactive)	> 100 µM (inactive)			
CCCCc1ccc(-n2sc3ncc([N+](=O)[O-])cc3c2=O)cc1	14.4 µM (inactive)	13.8 µM (inactive)	15 µM (inactive)	4.93 µM (inactive)	12.7 µM (inactive)	22.9 µM (inactive)	18.4 µM (inactive)		8.69 µM (inactive)	4.22 µM (inactive)	23.3 µM (inactive)	15.1 µM	10.5 µM (inactive)	16 µM (inactive)	7.24 µM (inactive)	16.8 µM (inactive)	13.8 µM (inactive)	20.3 µM (inactive)	12 µM (inactive)	14.4 µM (inactive)
Oc1ccc(-c2nc(-c3ccc4ccccc4n3)c(-c3ccc(F)cc3)[nH]2)cc1	18 µM (inactive)	13 µM (inactive)	15.2 µM (inactive)	11 µM (inactive)	5.45 µM (inactive)	12.5 µM (inactive)	14.6 µM (inactive)		11.5 µM (inactive)	21.6 µM (inactive)	15.5 µM (inactive)	10.7 µM	10.4 µM (inactive)	4.61 µM (inactive)	15.1 µM (inactive)	14.3 µM (inactive)	7.55 µM (inactive)	1.87 µM (inactive)	5.26 µM (inactive)	12.2 µM (inactive)
COc1ccc(-n2c(N)c(C#N)[nH]c2=O)cc1	> 10 µM (inactive)	> 10 µM (inactive)	> 10 µM (inactive)	> 10 µM (inactive)	> 10 µM (inactive)	> 10 µM (inactive)	> 10 µM (inactive)	> 10 µM (inactive)	> 10 µM (inactive)	> 10 µM (inactive)	> 10 µM (inactive)	> 10 µM	2.77 µM (inactive)		> 10 µM (inactive)	> 10 µM (inactive)	> 10 µM (inactive)	> 10 µM (inactive)	> 10 µM (inactive)	> 10 µM (inactive)
COc1ccc2c(C)c(Oc3c(Cl)c(Cl)c(O)c(C#N)c3C#N)oc2c1	> 100 µM (inactive)	> 100 µM (inactive)	> 100 µM (inactive)	> 100 µM (inactive)	> 100 µM (inactive)	> 100 µM (inactive)	> 100 µM (inactive)		> 100 µM (inactive)	> 100 µM (inactive)	> 100 µM (inactive)	> 100 µM	> 100 µM (inactive)	> 100 µM (inactive)	> 100 µM (inactive)	> 100 µM (inactive)	> 100 µM (inactive)	> 100 µM (inactive)	> 100 µM (inactive)	> 100 µM (inactive)
C[C@@]1(CO)[C@H](O)CC[C@@]2(C)[C@H]1CC[C@H]1C[C@@H]3C[C@@]12CC[C@@]3(O)COC(=O)CN	14 µM (inactive)		0.923 µM (active)	53.1 µM (inactive)			19.1 µM (inactive)	20.4 µM (inactive)	2.32 µM (inactive)		2.67 µM (inactive)				0.67 µM (active)		9.25 µM (inactive)	2.23 µM (inactive)	28 µM (inactive)	11.6 µM (inactive)
CCN(CC)C(=O)N1CN(c2ccccc2)C2(CCN(CCCC3(c4ccc(F)cc4)OCCO3)CC2)C1=O	4.26 µM (inactive)		18.6 µM (inactive)	16.3 µM (inactive)		19.8 µM (inactive)	3.13 µM (inactive)		17.4 µM (inactive)	19.7 µM (inactive)	12.2 µM (inactive)	15.2 µM	25.4 µM (inactive)	4.75 µM (inactive)	13.9 µM (inactive)	18 µM (inactive)		10.4 µM (inactive)	16.5 µM (inactive)	18.6 µM (inactive)
CCCCCCCC(=O)NS(=O)(=O)c1ccccc1	> 100 µM (inactive)	> 100 µM (inactive)	> 100 µM (inactive)	> 100 µM (inactive)	> 100 µM (inactive)	> 100 µM (inactive)	> 100 µM (inactive)		> 100 µM (inactive)	> 100 µM (inactive)	> 100 µM (inactive)	> 100 µM	> 100 µM (inactive)		> 100 µM (inactive)	> 100 µM (inactive)	> 100 µM (inactive)	> 100 µM (inactive)	> 100 µM (inactive)	> 100 µM (inactive)
